Test results from PubChem BioAssay AID248 (DTP/NCI, 2004).
Several values for one entry are separate records, joined by “and”; a condition that tells them apart may be missing. Equal entries are not always repeated. Toxic doses and inconclusive results are not listed. Rule as the data show it: active = T/C of 150% or more; inactive = T/C below 125%.

Test system: L1210 leukemia ip in BDF1 mice, survival T/C
Assay: NCI In Vivo Anticancer Drug Screen. Data for tumor model L1210 Leukemia (intraperitoneal) in B6D2F1 (BDF1) mice
Conditions: higher = longer survival
Outline: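 Each compound was tested against a transplantable tumor grown in mice. The endpoint was survival, with treated animals benchmarked against vehicle controls as a simple ratio.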

[1] = endpoint: mean survival time, dose: 50.0 mg/kg/injection, schedule: Q01DX009 (ip), vehicle: Klucel (hydroxypropylcellulose) (HPC)
[2] = endpoint: mean survival time, dose: 100.0 mg/kg/injection, schedule: Q01DX009 (ip), vehicle: Klucel (hydroxypropylcellulose) (HPC)
[3] = endpoint: mean survival time, dose: 100.0 mg/kg/injection, schedule: Q04DX003 (ip), vehicle: Klucel (hydroxypropylcellulose) (HPC)
[4] = endpoint: mean survival time, dose: 200.0 mg/kg/injection, schedule: Q01DX009 (ip), vehicle: Klucel (hydroxypropylcellulose) (HPC)
[5] = endpoint: mean survival time, dose: 200.0 mg/kg/injection, schedule: Q04DX003 (ip), vehicle: Klucel (hydroxypropylcellulose) (HPC)
[6] = endpoint: mean survival time, dose: 400.0 mg/kg/injection, schedule: Q01DX009 (ip), vehicle: Klucel (hydroxypropylcellulose) (HPC)
[7] = endpoint: mean survival time, dose: 400.0 mg/kg/injection, schedule: Q04DX003 (ip), vehicle: Klucel (hydroxypropylcellulose) (HPC)
[8] = endpoint: mean survival time, dose: 100.0 mg/kg/injection, schedule: Q01DX009 (ip), vehicle: saline with Tween-80
[9] = endpoint: mean survival time, dose: 200.0 mg/kg/injection, schedule: Q01DX009 (ip), vehicle: saline with Tween-80
[10] = endpoint: mean survival time, dose: 100.0 mg/kg/injection, schedule: Q04DX002 (ip), vehicle: Klucel (hydroxypropylcellulose) (HPC)
[11] = endpoint: mean survival time, dose: 200.0 mg/kg/injection, schedule: Q04DX002 (ip), vehicle: Klucel (hydroxypropylcellulose) (HPC)
[12] = endpoint: mean survival time, dose: 400.0 mg/kg/injection, schedule: Q04DX002 (ip), vehicle: Klucel (hydroxypropylcellulose) (HPC)
[13] = endpoint: mean survival time, dose: 100.0 mg/kg/injection, schedule: Q04DX003 (ip), vehicle: saline with Tween-80
[14] = endpoint: mean survival time, dose: 200.0 mg/kg/injection, schedule: Q04DX003 (ip), vehicle: saline with Tween-80
[15] = endpoint: mean survival time, dose: 400.0 mg/kg/injection, schedule: Q04DX003 (ip), vehicle: saline with Tween-80
[16] = endpoint: mean survival time, dose: 400.0 mg/kg/injection, schedule: Q01DX009 (ip), vehicle: saline with Tween-80

Measured: T/C

CN(Nc1c([N+](=O)[O-])cc([N+](=O)[O-])cc1[N+](=O)[O-])c1cccc2ccccc12
inactive: [1] 106 % of control | [2] 97 % of control | [3] 98 % of control | [4] 97 % of control | [5] 98 % of control | [6] 102 % of control | [7] 90 % of control

CO[C@H]1C[C@H](O[C@H]2CC[C@]3(C=O)[C@H]4CC[C@]5(C)[C@@H](C6=CC(=O)OC6)CC[C@]5(O)[C@@H]4CC[C@]3(O)C2)O[C@H](C)[C@H]1O[C@@H]1O[C@H](CO)[C@@H](O)[C@H](O)[C@H]1O
inactive: endpoint: mean survival time, dose: 0.25 mg/kg/injection, schedule: Q01DX015 (ip), vehicle: carboxymethylcellulose (CMC) 88 % of control | endpoint: mean survival time, dose: 0.5 mg/kg/injection, schedule: Q01DX001 (ip), vehicle: saline 100 % of control | endpoint: mean survival time, dose: 0.5 mg/kg/injection, schedule: Q01DX015 (ip), vehicle: carboxymethylcellulose (CMC) 113 % of control | endpoint: mean survival time, dose: 0.5 mg/kg/injection, schedule: Q04DX003 (ip), vehicle: saline 100 % of control | endpoint: mean survival time, dose: 1.0 mg/kg/injection, schedule: Q01DX015 (ip), vehicle: carboxymethylcellulose (CMC) 89 % of control | endpoint: mean survival time, dose: 1.0 mg/kg/injection, schedule: Q04DX003 (ip), vehicle: saline 103 % of control | endpoint: mean survival time, dose: 2.0 mg/kg/injection, schedule: Q01DX015 (ip), vehicle: carboxymethylcellulose (CMC) 97 % of control | endpoint: mean survival time, dose: 4.0 mg/kg/injection, schedule: Q01DX001 (ip), vehicle: saline 98 % of control | endpoint: median survival time, dose: 0.5 mg/kg/injection, schedule: Q01DX005 (ip), vehicle: water 104 % of control | endpoint: median survival time, dose: 1.0 mg/kg/injection, schedule: Q01DX005 (ip), vehicle: water 103 % of control | endpoint: median survival time, dose: 2.0 mg/kg/injection, schedule: Q01DX005 (ip), vehicle: water 106 % of control

CC12CCC(O)CC1=CCC1C2CCC2(C)C1CCC2(O)C#CCN(CCCl)CCCl (stereo not drawn)
inactive: endpoint: mean survival time, dose: 50.0 mg/kg/injection, schedule: Q04DX003 (sc), vehicle: steriod suspending solution 93 % of control | endpoint: mean survival time, dose: 100.0 mg/kg/injection, schedule: Q04DX003 (sc), vehicle: steriod suspending solution 112 % of control | endpoint: mean survival time, dose: 200.0 mg/kg/injection, schedule: Q04DX003 (sc), vehicle: steriod suspending solution 100 % of control | endpoint: mean survival time, dose: 400.0 mg/kg/injection, schedule: Q04DX003 (sc), vehicle: steriod suspending solution 99 % of control

CCOc1ccc([N+](=O)[O-])cc1C1N(Cc2ccc(OC)cc2)CCCN1Cc1ccc(OC)cc1
inactive: endpoint: mean survival time, dose: 100.0 mg/kg/injection, schedule: Q01DX001 (ip), vehicle: acetone 100 % of control | endpoint: mean survival time, dose: 200.0 mg/kg/injection, schedule: Q01DX001 (ip), vehicle: acetone 94 % of control | endpoint: mean survival time, dose: 400.0 mg/kg/injection, schedule: Q01DX001 (ip), vehicle: acetone 94 % of control

C/C=C/C=C\COC(=O)CC
inactive: endpoint: mean survival time, dose: 100.0 mg/kg/injection, schedule: Q04DX002 (ip), vehicle: saline 103 % of control | endpoint: mean survival time, dose: 200.0 mg/kg/injection, schedule: Q04DX002 (ip), vehicle: saline 100 % of control | endpoint: mean survival time, dose: 400.0 mg/kg/injection, schedule: Q04DX002 (ip), vehicle: saline 103 % of control

O=NN1CCCCCC1C(=O)O (stereo not drawn)
inactive: endpoint: mean survival time, dose: 100.0 mg/kg/injection, schedule: Q01DX001 (ip), vehicle: saline 108 % of control | endpoint: mean survival time, dose: 200.0 mg/kg/injection, schedule: Q01DX001 (ip), vehicle: saline 102 % of control

C1CCC2(CC1)CCCC2
inactive: endpoint: mean survival time, dose: 75.0 mg/kg/injection, schedule: Q01DX001 (ip), vehicle: saline with Tween-80 95 % of control | endpoint: mean survival time, dose: 150.0 mg/kg/injection, schedule: Q01DX001 (ip), vehicle: saline with Tween-80 92 % of control | endpoint: mean survival time, dose: 300.0 mg/kg/injection, schedule: Q01DX001 (ip), vehicle: saline with Tween-80 104 % of control

C/C(=N/NC(=O)CNC(=O)c1ccccc1)c1ccc2ccccc2c1
inactive: [8] 87 % of control | [9] 100 % of control

CCC(Cl)(Cl)[N+](=O)[O-]
inactive: endpoint: mean survival time, dose: 100.0 mg/kg/injection, schedule: Q04DX002 (ip), vehicle: saline with Tween-80 98 % of control | endpoint: mean survival time, dose: 200.0 mg/kg/injection, schedule: Q04DX002 (ip), vehicle: saline with Tween-80 98 % of control | endpoint: mean survival time, dose: 400.0 mg/kg/injection, schedule: Q04DX002 (ip), vehicle: saline with Tween-80 102 % of control

O=C(Nc1cccc(C(F)(F)F)c1)Nc1ccc(Cl)cc1Cl
inactive: endpoint: mean survival time, dose: 100.0 mg/kg/injection, schedule: Q01DX001 (ip), vehicle: Klucel (hydroxypropylcellulose) (HPC) 96 % of control | [2] 95 % of control and 108 % of control | [10] 95 % of control and 100 % of control | [3] 86 % of control | endpoint: mean survival time, dose: 200.0 mg/kg/injection, schedule: Q01DX001 (ip), vehicle: Klucel (hydroxypropylcellulose) (HPC) 91 % of control | [4] 94 % of control and 104 % of control | [11] 100 % of control and 88 % of control | [5] 94 % of control | endpoint: mean survival time, dose: 400.0 mg/kg/injection, schedule: Q01DX001 (ip), vehicle: Klucel (hydroxypropylcellulose) (HPC) 93 % of control | [6] 95 % of control and 97 % of control | [12] 98 % of control and 104 % of control | [7] 92 % of control

CC(C)(C)c1cc(Cc2cc(C(C)(C)C)c(O)c(C(C)(C)C)c2)cc(C(C)(C)C)c1O
inactive: [13] 96 % of control | [14] 98 % of control | [15] 104 % of control

CC(=O)Oc1ccc(C[n+]2ccccc2)cc1
inactive: endpoint: mean survival time, dose: 12.5 mg/kg/injection, schedule: Q01DX009 (ip), vehicle: saline 94 % of control | endpoint: mean survival time, dose: 25.0 mg/kg/injection, schedule: Q01DX009 (ip), vehicle: saline 86 % of control | endpoint: mean survival time, dose: 25.0 mg/kg/injection, schedule: Q04DX003 (ip), vehicle: saline 106 % of control | endpoint: mean survival time, dose: 50.0 mg/kg/injection, schedule: Q04DX003 (ip), vehicle: saline 100 % of control

Cc1ccc(-c2cc3ccccc3[nH]2)cc1
inactive: [1] 94 % of control | [2] 89 % of control | [3] 91 % of control | [4] 86 % of control | [5] 90 % of control

COc1ccc2c(c1)CCC1=C2CCC(C)(C(=O)O)N1 (stereo not drawn)
inactive: [8] 98 % of control | [9] 95 % of control | [16] 87 % of control

NC(N)=N/N=C/C(=N/N=C(N)N)c1ccccc1
inactive: endpoint: mean survival time, dose: 30.0 mg/kg/injection, schedule: Q01DX Z (oral), vehicle: carboxymethylcellulose (CMC) 108 % of control | endpoint: mean survival time, dose: 60.0 mg/kg/injection, schedule: Q01DX Z (oral), vehicle: carboxymethylcellulose (CMC) 115 % of control | endpoint: mean survival time, dose: 120.0 mg/kg/injection, schedule: Q01DX Z (oral), vehicle: carboxymethylcellulose (CMC) 105 % of control | endpoint: mean survival time, dose: 240.0 mg/kg/injection, schedule: Q01DX Z (oral), vehicle: carboxymethylcellulose (CMC) 103 % of control

O=C(Nc1ccc([N+](=O)[O-])cc1)Nc1ccc([N+](=O)[O-])cc1
inactive: [2] 93 % of control | endpoint: mean survival time, dose: 100.0 mg/kg/injection, schedule: Q01DX009 (ip), vehicle: saline sonified 109 % of control | [8] 109 % of control | [10] 101 % of control | [3] 104 % of control | endpoint: mean survival time, dose: 100.0 mg/kg/injection, schedule: Q04DX003 (ip), vehicle: saline sonified 96 % of control | [13] 100 % of control | [4] 94 % of control | endpoint: mean survival time, dose: 200.0 mg/kg/injection, schedule: Q01DX009 (ip), vehicle: saline sonified 110 % of control | [9] 90 % of control | [11] 90 % of control | [5] 104 % of control | endpoint: mean survival time, dose: 200.0 mg/kg/injection, schedule: Q04DX003 (ip), vehicle: saline sonified 91 % of control | [14] 102 % of control | [6] 88 % of control | endpoint: mean survival time, dose: 400.0 mg/kg/injection, schedule: Q01DX009 (ip), vehicle: saline sonified 98 % of control | [16] 86 % of control | [12] 97 % of control | [7] 98 % of control | endpoint: mean survival time, dose: 400.0 mg/kg/injection, schedule: Q04DX003 (ip), vehicle: saline sonified 93 % of control | [15] 97 % of control

O=C(OCc1ccccc1CN1CCOCC1)c1ccccc1
inactive: [10] 98 % of control | [11] 105 % of control | [12] 96 % of control
